Data reported in patent EP4717275A1, “ANTI-LUNG CANCER COMBINED DRUG AND USE THEREOF” (Gunagdong Yinzhu Pharmaceutical Technology Co., Ltd, priority 2023, dated 2024).
Where “and” joins values, the source holds several entries; their conditions need not be identical. Equal entries are not always repeated. Where two headings read alike, the source gives them in different places. Marks after values point to notes of the source that are not given here.

Assays:
NCI-H2228 cell = test: CCK8 proliferation assay with combination index analysis; assay type: cell-based, human; conditions: Alectinib alone
Procedure: CCK8 method was used to evaluate the effect of the drugs towards proliferation of lung cancer cell line (NCI-H2228 cell). The cellular viability with different concentration of drug was assayed and the 50% inhibitory concentration was calculated.
Emerge NCI-H2228 cells (purchased from American Type Culture Collection (ATCC, Manassas, VA, USA)) from liquid nitrogen and thaw in a 37°C water bath. After thawing, culture cells in 1640 medium.
When cell density reached 90% confluence in culture medium, cells were digested with 0.25% trypsin and resuspended. After cell growth stabilized, cells in the logarithmic growth phase were harvested and counted using a cell counter and it was ensured that viability exceeded 85% for all cell lines.
Adjust cell concentration by diluting with culture medium. Add 100 µL of cell suspension to a 96-well plate to achieve a density of 3000 cells/well. Add 100 µL of PBS buffer to the wells around the cell-seeded wells.
Incubate the 96-well plate at 37°C, 5% CO2, and 95% humidity overnight.
Remove the cell culture plate from the incubator, aspirate the culture medium, and add the prepared drug-containing medium. Incubate at 37°C, 5% CO2, and 95% humidity for 72 hours.
Add 10 µL of CCK-8 solution to each well of the 96-well plate. Incubate the plate in the cell culture incubator for 1.5 hours. Measure the absorbance at 450 nm using a microplate reader.
Analyze data using GraphPad Prism 5.0 software. Fit the data using nonlinear S-curve regression to generate a dose-response curve and calculate the IC50 value. [formula]
The analysis of the combination index of the compound was performed using the median effect principle. The formula for the combination index of two compounds is: CI = (D)1/(Dx)1 + (D)2/(Dx)2 [formula]
Where: • (D)1---- The concentration of Compound 1 when compound 1 was used with another compound and the effect X was generated; • (D)2---- The concentration of Compound 2 when compound 2 was used with another compound and the effect X was generated; • (Dx)1---- The concentration of Compound 1 when compound 1 was used alone and the effect X was generated; • (Dx)2---- The concentration of Compound 2 when compound 2 was used alone and the effect X was generated.
The CI value enables quantitative assessment of the nature and strength of interactions between different compounds (Table 2). Interaction strength is measured using the weighted average CI (CIwt), calculated by the formula: CIwt = (CI50+2CI75+3CI90+4CI95)/10 [formula]
Where: • CI50 ---- CI value at EC50 (concentration achieving 50% effect) • CI75, CI90, and CI95 follow the same principle, representing the CI values at EC75, EC90, and EC95, respectively.
Evaluation of the combination effect: CI value is used to evaluate the combination effect, and the judgment method is shown in Table 7. Table 7 Judgment criteria of the results

[1] = system: human lung cancer NCI-H2228 xenografts; test: Therapeutic effect in vivo on NCI-H2228 xenografts in nude mice; set-up: species or system BALB/c Nude mice; conditions: PO
Procedure: (§1) BALB/c Nude mice, female, 8-10 weeks old, 18-20g. The variation of the body weight is ±20% around average body weight. 80 mice were inoculated and 60 mice were grouped.
Table 9 Experimental design of therapeutic effect of the drugs in vivo
NCI-H2228 cells were cultured in RPMI 1640 medium supplemented with 10% FBS and maintained in a 37°C, 5% CO2 humidified incubator.
Log-phase NCI-H2228 cells were harvested, resuspended in RPMI 1640 basal medium containing 50% Matrigel, and adjusted to a concentration of 2 × 10^7 cells/mL. Under aseptic conditions, 0.1 mL of the cell suspension was injected subcutaneously into the right flank of mice at a concentration of 2 × 10^6 cells/0.1 mL/mouse.
When the mean tumor volume reached approximately 150 mm^3, animals were randomly grouped based on tumor volume, ensuring inter-group tumor volume variation was less than 10% of the mean.
(§2) The grouping day was designated as Day 0, and administration commenced according to animal body weight.
(§3) The same as the therapeutic effect evaluation experiments for Examples 1-2 and Comparative Examples 1-3.

[2] = Animal body weight, fatality and toxicity observation in the NCI-H2228 xenograft study; assay type: in vivo, BALB/c Nude mice
Description: as §1, §2, §3

[3] = system: human lung cancer NCI-H1975 xenografts; test: Therapeutic effect in vivo on NCI-H1975 xenografts in nude mice; set-up: species or system BALB/c Nude mice; conditions: PO
Procedure: BALB/c Nude mice, female, 8-10 weeks old, 18-20g. […] Table 2 Experimental design of therapeutic effect of the drugs in vivo […] NCI-H1975 cells were cultured in RPMI 1640 medium supplemented with 10% FBS and maintained in a 37°C, 5% CO2 humidified incubator. Log-phase NCI-H1975 cells were harvested, resuspended in RPMI 1640 basal medium containing 50% Matrigel, and adjusted to a concentration of 2 × 10^7 cells/mL. Under aseptic conditions, 0.1 mL of the cell suspension was injected subcutaneously into the right flank of mice at a concentration of 2 × 10^6 cells/0.1 mL/mouse. […] The grouping day was designated as Day 0, and administration commenced according to animal body weight. […] Animal body weight and tumor volume were measured twice weekly throughout the experiment. Tumor length and width were measured using a digital caliper, with tumor volume estimated from these measurements. After the final weighing on Day 21, remaining animals were euthanized with CO2. Tumors were weighed, photographed, and the experiment concluded. […] Tumor growth inhibition rate (%TGITV) is calculated as: […] Relative Tumor Volume (RTV) is calculated as Vt/V0, where V0 is the tumor volume at grouping and Vt is the tumor volume at each measurement. Relative Tumor Growth Rate (%T/CRTV) is calculated as TRTV/CRTV × 100%, where TRTV is the RTV of the treatment group and CRTV is the RTV of the negative control group. Tumor growth inhibition rate (%TGITW) is calculated as: ([…] × 100%, where TWc is the average tumor weight in the negative control group and TWT is the average tumor weight in the treatment group. […] Drug-related animal mortality exceeding 20% indicates severe toxicity at that dose. All experimental data in this study are expressed as Mean ± SEM. The evaluation of the combination index (CI) of drugs relies on the following equation: […]), wherein E(A+B) is the inhibition rate of combination drug, EA and EB is the inhibition rate of drug A and drug B respectively. E(A+B) in the equation represents 'measured synergistic effect' and (EA+EB-EA×EB) is 'expected synergistic effect'. CI=0.85-1.15 indicates a mere addition of the effect of two drugs, >1.15 indicates enhancement (or synergy), and <0.85 indicates antagonism. • Combination index of tumor growth inhibition: CAI, 40mg/kg + AZD9291, 1mg/kg: 1.27; […] CAI, 40mg/kg + AZD9291, 1mg/kg: 1.20; […]

[4] = assay type: in vivo
Procedure: as §1, §2
Animal body weight and tumor volume were measured twice weekly throughout the experiment. Tumor length and width were measured using a digital caliper, with tumor volume estimated from these measurements.
Clinical observations were recorded daily to assess overall health status, weight abnormalities, behavioral changes, and other treatment-related adverse reactions.
In accordance with animal welfare regulations, animals meeting any of the following criteria during the study were removed from the experimental group and euthanized: 1. Body weight loss exceeding 20% compared to Day 0 (BWL ≥ 20%); 2. Severe adverse reactions such as blindness or paralysis; 3. Tumor volume exceeding 2000 mm^3; 4.
The animal body weight change rate (%BWC) is calculated as: (BWt - BW0) / BW0 × 100%, where BWt is the animal body weight at each measurement and BW0 is the animal body weight at grouping.
According to China's NMPA Technical Guidance Principles for Non-clinical Studies of Cytotoxic Antineoplastic Drugs (November 2006), %T/CRTV ≤ 40% and statistically significant P < 0.05 indicate efficacy. Drug-related animal mortality exceeding 20% indicates severe toxicity at that dose.
All experimental data in this study are expressed as Mean ± SEM.

[5] = %TGITV from tumor volume vs control, QD×21
[6] = %TGITW from tumor weight vs control, QD×21

## CCc1cc2c(cc1N1CCC(N3CCOCC3)CC1)C(C)(C)c1[nH]c3cc(C#N)ccc3c1C2=O [Alectinib]
NCI-H2228 cell; single plates 1-3, 72 hours, read-out: IC50 (Alectinib)
  IC50: 471 nM and 546 nM
NCI-H2228 cell; Homo sapiens, NCI-H2228, 72 h, average of 3 plates, read-out: IC50 (Alectinib)
  IC50: 527 nM
NCI-H2228 cell; Homo sapiens, NCI-H2228, 72 h, single plates 1-3, read-out: IC50 (Alectinib)
  IC50: 563 nM
[1]; %T/CRTV, QD×21
  Relative tumor proliferation rate(%) Day 21: 59.77%
[1]; [5]
  Tumor growth inhibition rate(%) Day 21: 41.23%
[1]; [6]
  Tumor inhibition rate(%) Day 21: 49.14%
[1]; QD×21, dose per group
  Tumor volume (mm^3,Mean±SEM) Day 21: 863.95± 98.37* mm^3
[1]; QD×21, listed as Comparative Example 4
  Tumor weight (g,Mean±SEM) Day 21: 0.444 ± 0.049 g
[1]; RTV = Vt/V0, Mean ± SEM, QD×21
  Relative tumor volume Day 21: 5.23± 0.32
[2]; dead/total animals at Day 21, NCI-H2228 study, PO, QD×21
  Fatality: 0/10 (Day 21)
[2]; mouse, in vivo
  inhibitory effect on animal weight gain: slight inhibition effect on animal body weight
[2]; mouse, in vivo, po
  Average body weight (g, Mean ± SEM) Day 0: 22.48 ± 0.33 g
  Average body weight (g, Mean ± SEM) Day 21: 22.20 ± 0.41 g
  Body weight change Day 21 vs Day 0 (g, in brackets): -0.28 g
  Body weight change rate Day 21 vs Day 0: -1.13%

## C=CC(=O)Nc1cc(Nc2nccc(-c3cn(C)c4ccccc34)n2)c(OC)cc1N(C)CCN(C)C [Comparative Example 1, osimertinib]
[3]; %T/CRTV, QD×21
  Relative tumor proliferation rate(%) Day 21: 81.08%
[3]; [5]
  Tumor growth inhibition rate(%) Day 21: 21.02%
[3]; [6]
  Tumor inhibition rate(%) Day 21: 14.73%
[3]; QD×21
  Tumor weight (g,Mean±SEM) Day 21: 1.401 ± 0.212 g
[3]; QD×21, dose per group
  Tumor volume (mm^3,Mean±SEM) Day 21: 1394.40 ±181.52 mm^3
[3]; RTV = Vt/V0, Mean ± SEM, QD×21
  Relative tumor volume Day 21: 8.74 ± 0.73
[4]; dead/total animals at Day 21, NCI-H1975 study, PO, QD×21
  Fatality: 0/10 (Day 21)
[4]; mouse, in vivo, po
  Average body weight (g, Mean ± SEM) Day 0: 19.47 ± 0.28 g
  Average body weight (g, Mean ± SEM) Day 21: 21.46 ± 0.42 g
  Body weight change Day 21 vs Day 0 (g, in brackets): 1.99 g
  Body weight change rate Day 21 vs Day 0: 10.15%
